According to patent US6495591B1, “Fungal efflux pump inhibitors” (Essential Therapeutics, Inc., priority 1997, dated 2002):
≈ marks a conversion by molar mass, not a printed value. Where two headings read alike, the source gives them in different places.

What was measured:
[1] = test system: C. albicans YEM-13 (BEN overexpressor); experiment: microbe, parasite or virus in culture; type: cell-based; details: Candida albicans, read-out: MIC Mb alone
[2] = molecular target: pBEN (MF) efflux pump in S. cerevisiae YEM-2 (Candida albicans, UniProt P28873); experiment: cell-based; type: cell-based, C. albicans
Sequence of pBEN (MF) efflux pump in S. cerevisiae YEM-2 (P28873 whole entry): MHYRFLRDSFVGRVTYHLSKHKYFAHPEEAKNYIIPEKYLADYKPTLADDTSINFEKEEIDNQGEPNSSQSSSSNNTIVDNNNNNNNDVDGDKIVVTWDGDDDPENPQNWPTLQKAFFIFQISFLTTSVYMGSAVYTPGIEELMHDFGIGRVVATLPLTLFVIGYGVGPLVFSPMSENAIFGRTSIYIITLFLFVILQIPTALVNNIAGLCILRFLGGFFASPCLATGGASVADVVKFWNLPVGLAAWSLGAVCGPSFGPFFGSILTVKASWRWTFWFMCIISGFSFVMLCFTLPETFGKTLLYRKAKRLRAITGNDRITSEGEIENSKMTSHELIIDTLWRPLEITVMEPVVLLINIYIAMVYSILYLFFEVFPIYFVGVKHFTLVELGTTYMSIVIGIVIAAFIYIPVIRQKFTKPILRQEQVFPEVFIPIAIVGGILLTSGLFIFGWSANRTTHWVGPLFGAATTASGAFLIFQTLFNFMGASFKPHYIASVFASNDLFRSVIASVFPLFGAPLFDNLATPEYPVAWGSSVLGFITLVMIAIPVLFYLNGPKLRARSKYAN

[3] = test system: pCgBEN (MF) efflux pump in S. cerevisiae YEM-40; type: cell-based, C. glabrata; details: YEM-40 pCgBEN; fluconazole fixed at FLUhalf 2.8
[4] = test system: mammalian P-glycoprotein multi-drug resistant pump; type: cell-based, mouse
Method: The inhibitory effect of milbemycin β1 against the mammalian P-glycoprotein multi-drug resistant pump was determined following the procedure described by Tsuruo et al (Cancer Res., 1981. 41:1967-1972) with slight modification. The cytotoxicity of antitumor agent, adriamycin, against adriamycin sensitive P388 cell line (mouse leukemia) and its adriamycin resistant subline line (P388/ADM) was measured in the presence of various concentrations of milbemycin β1. […] The assay is performed in serum-free media containing 20 μM of 2-mercaptoethanol. Chemosensitivity to adriamycin was determined […] based on the reduction of MTT (3-[4,5-dimethylthiazol-2-yl]-2,5-diphenyltetrazolium bromide) into blue formazan.

[5] = test system: YEM 53 C. krusei; experiment: FEPI MIC with/without 1/8 fluconazole MIC at 24 hrs (Table 11); type: cell-based; details: for MIC of compound in the absence of fluconazole (−): YEM 53, 24 hrs, 80% inhibition
[6] = molecular target: pCDRI (ABC) efflux pump in S. cerevisiae YEM-1 (Candida albicans, UniProt P43071); experiment: cell-based; type: cell-based, C. albicans
Sequence of pCDRI (ABC) efflux pump in S. cerevisiae YEM-1 (P43071 whole entry): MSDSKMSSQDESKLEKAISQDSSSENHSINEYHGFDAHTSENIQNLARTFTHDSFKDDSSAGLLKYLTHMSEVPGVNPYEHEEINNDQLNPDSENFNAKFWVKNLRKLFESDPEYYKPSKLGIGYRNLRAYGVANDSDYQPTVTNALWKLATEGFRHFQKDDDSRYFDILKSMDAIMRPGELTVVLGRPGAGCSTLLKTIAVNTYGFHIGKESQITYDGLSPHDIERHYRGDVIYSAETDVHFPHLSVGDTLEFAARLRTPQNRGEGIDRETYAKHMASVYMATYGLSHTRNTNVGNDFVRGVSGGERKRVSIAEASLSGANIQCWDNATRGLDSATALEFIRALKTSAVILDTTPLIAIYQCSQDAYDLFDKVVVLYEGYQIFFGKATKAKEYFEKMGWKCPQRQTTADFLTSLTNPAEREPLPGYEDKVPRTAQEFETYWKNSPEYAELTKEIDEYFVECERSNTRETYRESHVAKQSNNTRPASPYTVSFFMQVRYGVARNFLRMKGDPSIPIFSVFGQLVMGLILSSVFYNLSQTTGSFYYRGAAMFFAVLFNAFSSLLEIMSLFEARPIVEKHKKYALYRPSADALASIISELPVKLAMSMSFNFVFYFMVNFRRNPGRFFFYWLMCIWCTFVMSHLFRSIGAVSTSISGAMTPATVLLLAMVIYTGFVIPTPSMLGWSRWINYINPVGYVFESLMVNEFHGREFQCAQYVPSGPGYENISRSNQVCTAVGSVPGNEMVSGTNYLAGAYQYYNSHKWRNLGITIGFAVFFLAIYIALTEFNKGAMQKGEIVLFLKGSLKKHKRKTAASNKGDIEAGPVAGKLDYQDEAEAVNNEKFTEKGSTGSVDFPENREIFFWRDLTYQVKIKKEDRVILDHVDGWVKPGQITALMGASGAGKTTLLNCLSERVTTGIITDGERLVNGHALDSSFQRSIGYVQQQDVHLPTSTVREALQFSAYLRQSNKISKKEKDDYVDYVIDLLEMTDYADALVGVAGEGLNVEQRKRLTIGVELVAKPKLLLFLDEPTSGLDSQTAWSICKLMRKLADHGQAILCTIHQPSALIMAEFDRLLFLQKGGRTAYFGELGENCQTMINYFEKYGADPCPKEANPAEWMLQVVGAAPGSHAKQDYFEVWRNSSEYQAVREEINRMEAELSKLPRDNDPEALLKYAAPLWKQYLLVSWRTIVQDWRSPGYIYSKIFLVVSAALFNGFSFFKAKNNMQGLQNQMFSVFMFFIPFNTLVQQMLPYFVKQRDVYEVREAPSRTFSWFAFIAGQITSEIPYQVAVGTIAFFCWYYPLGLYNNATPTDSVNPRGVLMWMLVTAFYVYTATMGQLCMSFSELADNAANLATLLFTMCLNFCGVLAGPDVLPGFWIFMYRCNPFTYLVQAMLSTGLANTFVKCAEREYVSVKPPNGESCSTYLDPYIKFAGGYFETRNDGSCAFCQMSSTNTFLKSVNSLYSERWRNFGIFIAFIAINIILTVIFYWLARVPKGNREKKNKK

[7] = molecular target: pCgCDR (ABC) efflux pump in S. cerevisiae YEM-39 (Candida glabrata, UniProt Q6FK23); experiment: cell-based; type: cell-based, C. glabrata
Sequence of pCgCDR (ABC) efflux pump in S. cerevisiae YEM-39 (Q6FK23 whole entry): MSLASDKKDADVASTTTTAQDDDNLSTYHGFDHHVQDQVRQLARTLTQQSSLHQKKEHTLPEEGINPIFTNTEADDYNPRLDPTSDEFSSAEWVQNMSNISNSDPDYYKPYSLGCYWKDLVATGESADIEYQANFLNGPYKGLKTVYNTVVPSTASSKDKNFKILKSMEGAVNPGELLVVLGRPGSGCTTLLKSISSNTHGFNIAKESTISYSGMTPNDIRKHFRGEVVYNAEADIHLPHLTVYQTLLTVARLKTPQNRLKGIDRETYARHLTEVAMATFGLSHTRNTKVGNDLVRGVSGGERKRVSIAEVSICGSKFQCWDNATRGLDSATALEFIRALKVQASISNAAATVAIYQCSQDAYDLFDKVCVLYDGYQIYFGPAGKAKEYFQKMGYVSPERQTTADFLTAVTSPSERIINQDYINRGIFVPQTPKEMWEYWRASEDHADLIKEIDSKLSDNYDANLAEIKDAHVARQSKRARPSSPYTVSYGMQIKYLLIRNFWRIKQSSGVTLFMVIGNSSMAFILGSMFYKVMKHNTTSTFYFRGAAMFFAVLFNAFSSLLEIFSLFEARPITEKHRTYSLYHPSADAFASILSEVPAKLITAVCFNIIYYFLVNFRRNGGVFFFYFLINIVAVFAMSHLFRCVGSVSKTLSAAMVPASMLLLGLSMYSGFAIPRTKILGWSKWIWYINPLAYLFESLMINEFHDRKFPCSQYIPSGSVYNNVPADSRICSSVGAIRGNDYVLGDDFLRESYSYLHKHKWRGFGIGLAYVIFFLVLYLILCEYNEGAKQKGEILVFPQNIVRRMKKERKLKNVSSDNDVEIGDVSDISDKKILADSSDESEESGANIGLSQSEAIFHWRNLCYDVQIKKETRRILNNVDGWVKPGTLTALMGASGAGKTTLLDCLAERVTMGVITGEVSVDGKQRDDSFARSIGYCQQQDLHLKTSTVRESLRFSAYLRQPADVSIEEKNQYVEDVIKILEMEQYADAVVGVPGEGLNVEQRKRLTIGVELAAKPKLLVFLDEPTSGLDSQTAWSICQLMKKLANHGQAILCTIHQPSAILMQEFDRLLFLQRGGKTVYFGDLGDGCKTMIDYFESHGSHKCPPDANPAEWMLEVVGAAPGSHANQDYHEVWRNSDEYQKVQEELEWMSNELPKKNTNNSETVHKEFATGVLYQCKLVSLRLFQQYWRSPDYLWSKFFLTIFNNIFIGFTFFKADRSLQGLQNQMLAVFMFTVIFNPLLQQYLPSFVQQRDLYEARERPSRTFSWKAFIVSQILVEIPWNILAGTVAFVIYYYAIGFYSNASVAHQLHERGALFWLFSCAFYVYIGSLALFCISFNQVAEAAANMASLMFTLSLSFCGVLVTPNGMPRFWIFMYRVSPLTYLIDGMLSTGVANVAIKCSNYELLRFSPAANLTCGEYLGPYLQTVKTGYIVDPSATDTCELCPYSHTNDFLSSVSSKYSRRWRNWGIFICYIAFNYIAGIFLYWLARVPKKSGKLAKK

[8] = test system: YEM 17 C. glabrata, CgCDR up; type: cell-based; details: 24 hrs, 80% inhibition; for MIC of compound in the presence of fluconazole (+): 1/8 × MIC of fluconazole
[9] = test system: YEM 13 C. albicans BEN up; experiment: microbe, parasite or virus in culture; type: cell-based; details: YEM 13, 24 hrs, 80% inhibition; for MIC of compound in the presence of fluconazole (+): 1/8 × MIC of fluconazole
[10] = test system: C. albicans YEM-15 (CDR1 and CDR2 overexpressor); experiment: microbe, parasite or virus in culture; type: cell-based; details: Candida albicans, read-out: MIC Mb alone
[11] = test system: YEM 15 C. albicans, CDR1CDR2 up; experiment: microbe, parasite or virus in culture; type: cell-based; details: YEM 15, 24 hrs, 80% inhibition; for MIC of compound in the presence of fluconazole (+): 1/8 × MIC of fluconazole
[12] = test system: C. krusei YEM-52 (ATCC 90878), wild type; experiment: Minimal concentration to reduce fluconazole MIC sixteen-fold (Table 7); type: cell-based; details: YEM-52, wild type
[13] = test system: S. cerevisiae YEM-3 (no efflux pump introduced); experiment: microbe, parasite or virus in culture; type: cell-based; details: Saccharomyces cerevisiae, read-out: MIC Mb alone
[14] = test system: YEM 30 C. albicans wt; experiment: FEPI MIC with/without 1/8 fluconazole MIC at 24 hrs (Table 11); type: cell-based; details: for MIC of compound in the absence of fluconazole (−): YEM 30, 24 hrs, 80% inhibition
[15] = molecular target: pCDR2 (ABC) efflux pump in S. cerevisiae YEM-37 (Candida albicans, UniProt P78595); experiment: cell-based; type: cell-based, C. albicans
Sequence of pCDR2 (ABC) efflux pump in S. cerevisiae YEM-37 (P78595 whole entry): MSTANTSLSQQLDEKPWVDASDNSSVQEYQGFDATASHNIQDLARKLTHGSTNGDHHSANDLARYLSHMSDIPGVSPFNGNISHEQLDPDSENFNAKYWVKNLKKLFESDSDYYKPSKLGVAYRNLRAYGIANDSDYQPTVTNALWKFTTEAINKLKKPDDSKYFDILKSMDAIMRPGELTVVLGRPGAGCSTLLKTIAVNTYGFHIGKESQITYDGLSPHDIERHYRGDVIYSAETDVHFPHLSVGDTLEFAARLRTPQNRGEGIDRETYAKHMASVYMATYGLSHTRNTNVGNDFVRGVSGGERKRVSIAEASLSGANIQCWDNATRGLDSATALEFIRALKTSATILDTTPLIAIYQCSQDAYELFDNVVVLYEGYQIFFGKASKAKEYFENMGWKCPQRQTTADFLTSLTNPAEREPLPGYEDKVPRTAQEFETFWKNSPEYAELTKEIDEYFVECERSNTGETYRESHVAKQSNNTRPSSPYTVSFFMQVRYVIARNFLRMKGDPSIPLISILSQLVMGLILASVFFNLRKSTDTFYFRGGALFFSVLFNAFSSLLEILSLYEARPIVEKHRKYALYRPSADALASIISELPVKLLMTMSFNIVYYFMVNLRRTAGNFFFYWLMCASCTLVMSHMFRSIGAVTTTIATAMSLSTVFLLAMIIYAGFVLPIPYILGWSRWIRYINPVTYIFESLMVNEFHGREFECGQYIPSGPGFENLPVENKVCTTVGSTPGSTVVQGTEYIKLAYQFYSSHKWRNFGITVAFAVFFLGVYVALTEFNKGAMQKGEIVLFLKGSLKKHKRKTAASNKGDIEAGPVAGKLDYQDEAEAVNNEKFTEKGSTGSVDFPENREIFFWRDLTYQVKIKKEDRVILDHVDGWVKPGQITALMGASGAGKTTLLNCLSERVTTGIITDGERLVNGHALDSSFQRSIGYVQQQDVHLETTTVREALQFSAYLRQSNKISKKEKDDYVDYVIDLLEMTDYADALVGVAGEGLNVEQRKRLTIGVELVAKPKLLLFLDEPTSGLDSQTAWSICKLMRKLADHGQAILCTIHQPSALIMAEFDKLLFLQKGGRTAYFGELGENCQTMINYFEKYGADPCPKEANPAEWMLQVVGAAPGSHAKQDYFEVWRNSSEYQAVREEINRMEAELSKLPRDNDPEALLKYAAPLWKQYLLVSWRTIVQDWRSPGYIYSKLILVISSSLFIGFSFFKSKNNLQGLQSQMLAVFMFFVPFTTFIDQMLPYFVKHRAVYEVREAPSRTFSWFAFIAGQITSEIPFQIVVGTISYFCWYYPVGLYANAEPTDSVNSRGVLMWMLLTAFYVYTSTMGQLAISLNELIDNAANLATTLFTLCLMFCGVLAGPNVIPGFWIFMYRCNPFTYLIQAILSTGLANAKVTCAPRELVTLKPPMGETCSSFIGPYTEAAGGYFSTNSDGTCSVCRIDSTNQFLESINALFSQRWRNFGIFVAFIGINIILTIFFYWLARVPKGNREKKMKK

[16] = test system: YEM 51 C. glabrata wt; experiment: FEPI MIC with/without 1/8 fluconazole MIC at 24 hrs (Table 11); type: cell-based; details: for MIC of compound in the absence of fluconazole (−): YEM 51, 24 hrs, 80% inhibition
[17] = test system: C. albicans YEM-12 (low level CDR1 expressor); experiment: microbe, parasite or virus in culture; type: cell-based
[18] = test system: YEM 24 C. albicans ΔCDR1, ΔCDR2; experiment: microbe, parasite or virus in culture; type: cell-based; details: YEM 24, 24 hrs, 80% inhibition; for MIC of compound in the presence of fluconazole (+): 1/8 × MIC of fluconazole
[19] = Cytotoxicity TC50 in K-562; type: cell-based; details: human, k-562 cells; compound alone
[20] = test system: YEM 27 C. albicans ΔCDR1ΔCDR2 ΔBENΔFLU1; experiment: microbe, parasite or virus in culture; type: cell-based; details: YEM 27, 24 hrs, 80% inhibition; for MIC of compound in the presence of fluconazole (+): 1/8 × MIC of fluconazole
[21] = test system: Aspergillus fumigatus; experiment: FEPI MICs in combination with 1/4 the azole's MIC (Table 12); type: cell-based; details: for FEPI MIC with itraconazole, 60% Inh / FEPI MIC with itraconazole, 80% Inh: itraconazole 0.063 μg/ml (1/4 MIC); for FEPI MIC with itraconazole, 60% Inh / FEPI MIC with ketoconazole, 60% Inh: 60% inhibition; for FEPI MIC with itraconazole, 80% Inh / FEPI MIC with ketoconazole, 80% Inh / FEPI MIC (alone): 80% inhibition; for FEPI MIC with ketoconazole, 60% Inh / FEPI MIC with ketoconazole, 80% Inh: ketoconazole 4 μg/ml (1/4 MIC); for FEPI MIC (alone): no azole, 35° C., CM Broth
Method: The combinations were tested against a series of Candida strain with known expression of efflux pumps or with complete deletion of all known pumps and Aspergillus fumigatus. Results are reported as minimum inhibitory concentration (MIC) of […] in the presence or absence of […]. A total of 27 distinct milbemycins were studied.

[22] = test system: S. cerevisiae YEM-37 overexpressing CDR2 (C. albicans); experiment: microbe, parasite or virus in culture; type: cell-based; set-up: MIC Reduction Factor, fluconazole: unit not given beside the values; details: for MIC: Saccharomyces cerevisiae
[23] = YEM-37 (CDR2), milbemycin α9 at FEPImax
[24] = YEM-37, milbemycin α9 at FEPImax

## CO[C@H]1C[C@@]2(O)/C(CO)=C/C=C/[C@H](C)C/C(C)=C/C[C@@H]3C[C@@H](C[C@]4(CC[C@H](C)[C@@H](C)O4)O3)OC(=O)[C@@H]2C=C1C [Compound 6, Milbemycin β1]
[1]
  MIC: 32 µg/mL (≈ 58.7 µM)
[2]; read-out: FEPIhalf (concentration needed to reduce activity of efflux pump by 50%), YEM-2 pBEN, fluconazole fixed at FLUhalf 5.6
  IC50: 29.4 µM
[3]
  FEPIhalf (concentration needed to reduce activity of efflux pump by 50%): 16
[4]; compared with verapamil
  Potency as inhibitor of the mammalian p-glycoprotein multi-drug resistant pump: potency similar to that of verapamil
[4]; inhibitor 0.06 μg/ml
  Ratio [P388/A]/[P388]: 220
[4]; inhibitor 0.25 μg/ml
  Ratio [P388/A]/[P388]: 75
[4]; inhibitor 0.5 μg/ml
  Ratio [P388/A]/[P388]: 32
[4]; inhibitor 1 μg/ml
  Ratio [P388/A]/[P388]: 23
[4]; inhibitor 2 μg/ml
  Ratio [P388/A]/[P388]: 4
[4]; inhibitor 3.125 μg/ml
  Ratio [P388/A]/[P388]: 5
[5]
  MIC of compound in the presence of fluconazole (+): 8 µg/mL
  MIC of compound in the absence of fluconazole (−): > 64 µg/mL
[6]; read-out: FEPIhalf (concentration needed to reduce activity of efflux pump by 50%), YEM-1 pCDRI, fluconazole fixed at FLUhalf 5.6
  IC50: 0.918 µM
[7]; read-out: FEPIhalf (concentration needed to reduce activity of efflux pump by 50%), YEM-39 pCgCDR, fluconazole fixed at FLUhalf 4
  IC50: 3.67 µM
[8]
  MIC of compound in the presence of fluconazole (+): 1 µg/mL
  MIC of compound in the absence of fluconazole (−): > 64 µg/mL
[9]
  MIC of compound in the presence of fluconazole (+): > 64 µg/mL
  MIC of compound in the absence of fluconazole (−): > 64 µg/mL
[10]
  MIC: 16 µg/mL (≈ 29.4 µM)
[11]
  MIC of compound in the presence of fluconazole (+): ≦0.03
  MIC of compound in the absence of fluconazole (−): > 64 µg/mL
[12]
  Minimal concentration required to reduce the MIC of fluconazole by sixteen-fold: 1.25 µg/mL
[13]
  MIC: 8 µg/mL (≈ 14.7 µM)
[14]
  MIC of compound in the presence of fluconazole (+): ≦0.03
  MIC of compound in the absence of fluconazole (−): > 64 µg/mL
[15]; read-out: FEPIhalf (concentration needed to reduce activity of efflux pump by 50%), YEM-37 pCDR2, fluconazole fixed at FLUhalf 1
  IC50: 3.67 µM
[16]
  MIC of compound in the presence of fluconazole (+): 8 µg/mL
  MIC of compound in the absence of fluconazole (−): > 64 µg/mL
[17]; Candida albicans, read-out: MIC Mb alone
  MIC: 32 µg/mL (≈ 58.7 µM)
[17]; YEM-12, milbemycin β1 2.5 μg/ml
  MIC of fluconazole, Flu + Mb (2.5 μg/ml): 0.25 µg/mL
[18]
  MIC of compound in the presence of fluconazole (+): > 64 µg/mL
  MIC of compound in the absence of fluconazole (−): > 64 µg/mL
[19]
  CC50: 8 µM
[20]
  MIC of compound in the presence of fluconazole (+): 64 µg/mL
  MIC of compound in the absence of fluconazole (−): > 64 µg/mL
[21]
  FEPI MIC with fluconazole, 60% Inh: 2
  FEPI MIC with fluconazole, 80% Inh: >64
  FEPI MIC with itraconazole, 60% Inh: >64
  FEPI MIC with itraconazole, 80% Inh: >64
  FEPI MIC with ketoconazole, 60% Inh: ≦0.063
  FEPI MIC with ketoconazole, 80% Inh: 4
  FEPI MIC (alone): >64

## C/C1=C\C[C@@H]2C[C@@H](C[C@]3(CC[C@H](C)[C@@H](C)O3)O2)OC(=O)[C@@H]2C=C(COC(=O)c3ccc[nH]3)[C@@H](O)[C@H]3OC/C(=C\C=C\[C@H](C)C1)[C@]32O [Compound 11, Milbemycin α9]
[2]
  IC50: > 100 µM
[3]
  FEPIhalf (concentration needed to reduce activity of efflux pump by 50%): >64
[5]
  MIC of compound in the presence of fluconazole (+): ≦0.03
  MIC of compound in the absence of fluconazole (−): > 64 µg/mL
[6]
  IC50: < 0.0941 µM
[7]
  IC50: 6.27 µM
[8]
  MIC of compound in the presence of fluconazole (+): 0.5 µg/mL
  MIC of compound in the absence of fluconazole (−): > 64 µg/mL
[9]
  MIC of compound in the presence of fluconazole (+): > 64 µg/mL
  MIC of compound in the absence of fluconazole (−): > 64 µg/mL
[11]
  MIC of compound in the presence of fluconazole (+): ≦0.03
  MIC of compound in the absence of fluconazole (−): > 64 µg/mL
[14]
  MIC of compound in the presence of fluconazole (+): ≦0.03
  MIC of compound in the absence of fluconazole (−): > 64 µg/mL
[15]
  IC50: 3.14 µM
[16]
  MIC of compound in the presence of fluconazole (+): 1 µg/mL
  MIC of compound in the absence of fluconazole (−): > 64 µg/mL
[18]
  MIC of compound in the presence of fluconazole (+): > 64 µg/mL
  MIC of compound in the absence of fluconazole (−): > 64 µg/mL
[20]
  MIC of compound in the presence of fluconazole (+): > 64 µg/mL
  MIC of compound in the absence of fluconazole (−): > 64 µg/mL
[21]
  FEPI MIC with fluconazole, 60% Inh: ≦0.063
  FEPI MIC with fluconazole, 80% Inh: 0.5
  FEPI MIC with itraconazole, 60% Inh: 1
  FEPI MIC with itraconazole, 80% Inh: 4
  FEPI MIC with ketoconazole, 60% Inh: 0.125
  FEPI MIC with ketoconazole, 80% Inh: 0.125
  FEPI MIC (alone): >64
[22]; read-out: Milbemycin α9 MIC
  MIC: > 64 µg/mL
[22]; read-out: Terbinafine MIC in the presence of FEPImax
  MIC: 0.5 µg/mL
[22]; YEM-37 (CDR2)
  FEPImax (minimal milbemycin α9 conc. for maximum MIC reduction), fluconazole: 1 µg/mL
  FEPImax (minimal milbemycin α9 conc. for maximum MIC reduction), terbinafine: 4 µg/mL
[22]; [23]
  Pump inhibition (%), fluconazole: 100%
  Pump inhibition (%), terbinafine: 100%
[22]; [24]
  Fluconazole MIC in the presence of FEPImax: 0.5 µg/mL
  MIC Reduction Factor, fluconazole: 8
